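Test compounds were applied to cells in 96-well plates for 48 hours at 5 doses. GI50 marks 50% less growth. Definition used: TGI = concentration required for complete inhibition of growth.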
Assays:
Assay in all cases: growth of human tumour cells (NCI), 48 h
COLO 205 colon = tested on: COLO 205 colon
OVCAR-3 ovarian = tested on: OVCAR-3 ovarian
MALME-3M melanoma = tested on: MALME-3M melanoma
SR leukemia = tested on: SR leukemia
MOLT-4 leukemia = tested on: MOLT-4 leukemia
A498 renal = tested on: A498 renal
UO-31 renal = tested on: UO-31 renal
U251 CNS = tested on: U251 CNS
DU-145 prostate = tested on: DU-145 prostate
RPMI-8226 leukemia = tested on: RPMI-8226 leukemia
SK-MEL-2 melanoma = tested on: SK-MEL-2 melanoma
SK-MEL-5 melanoma = tested on: SK-MEL-5 melanoma
A549 NSCLC = tested on: A549 NSCLC
HL-60(TB) leukemia = tested on: HL-60(TB) leukemia
OVCAR-4 ovarian = tested on: OVCAR-4 ovarian
M14 melanoma = tested on: M14 melanoma
K-562 leukemia = tested on: K-562 leukemia
HOP-62 NSCLC = tested on: HOP-62 NSCLC
SF-539 CNS = tested on: SF-539 CNS
NCI/ADR-RES ovarian = tested on: NCI/ADR-RES ovarian
SF-295 CNS = tested on: SF-295 CNS
BT-549 breast = tested on: BT-549 breast
SW-620 colon = tested on: SW-620 colon
MCF7 breast = tested on: MCF7 breast
MDA-MB-435 = tested on: MDA-MB-435
IGROV1 ovarian = tested on: IGROV1 ovarian
MDA-MB-231 breast = tested on: MDA-MB-231 breast
EKVX NSCLC = tested on: EKVX NSCLC
T-47D breast = tested on: T-47D breast
HOP-92 NSCLC = tested on: HOP-92 NSCLC
HCT-15 colon = tested on: HCT-15 colon
CCRF-CEM leukemia = tested on: CCRF-CEM leukemia
RXF 393 renal = tested on: RXF 393 renal
SNB-19 CNS = tested on: SNB-19 CNS
CAKI-1 renal = tested on: CAKI-1 renal
UACC-257 melanoma = tested on: UACC-257 melanoma
OVCAR-8 ovarian = tested on: OVCAR-8 ovarian
NCI-H226 lung = tested on: NCI-H226 lung
TK-10 renal = tested on: TK-10 renal
SN12C renal = tested on: SN12C renal
LOX IMVI melanoma = tested on: LOX IMVI melanoma
SK-OV-3 ovarian = tested on: SK-OV-3 ovarian
KM12 colon = tested on: KM12 colon
PC-3 prostate = tested on: PC-3 prostate
UACC-62 melanoma = tested on: UACC-62 melanoma
HS 578T breast = tested on: HS 578T breast
NCI-H522 lung = tested on: NCI-H522 lung
HCT-116 colon = tested on: HCT-116 colon
NCI-H23 lung = tested on: NCI-H23 lung
ACHN renal = tested on: ACHN renal
SK-MEL-28 melanoma = tested on: SK-MEL-28 melanoma
HT29 colon = tested on: HT29 colon
SF-268 CNS = tested on: SF-268 CNS
786-0 renal = tested on: 786-0 renal
OVCAR-5 ovarian = tested on: OVCAR-5 ovarian
NCI-H460 lung = tested on: NCI-H460 lung
SNB-75 CNS = tested on: SNB-75 CNS

Compound CCOC(=O)c1c(C(F)(F)F)n([O-])c2ccc(Cl)cc2[n+]1=O has a GI50 (COLO 205 colon) of 1650 nM, a TGI (COLO 205 colon) of 3290 nM and a GI50 (OVCAR-3 ovarian) of 2110 nM. The TGI (OVCAR-3 ovarian) was 3930 nM, the GI50 (MALME-3M melanoma) was 1730 nM and the TGI (MALME-3M melanoma) was 3420 nM. The GI50 (SR leukemia) was 1550 nM, the TGI (SR leukemia) was 4350 nM and the GI50 (MOLT-4 leukemia) was 2320 nM. The TGI (MOLT-4 leukemia) was 5180 nM, the GI50 (A498 renal) was 1730 nM and the TGI (A498 renal) was 3930 nM. It also gave a GI50 (UO-31 renal) of 1480 nM, a TGI (UO-31 renal) of 2930 nM and a GI50 (U251 CNS) of 1750 nM. The TGI (U251 CNS) was 3360 nM, the GI50 (DU-145 prostate) was 1930 nM and the TGI (DU-145 prostate) was 3500 nM. The GI50 (RPMI-8226 leukemia) was 2070 nM, the TGI (RPMI-8226 leukemia) was 5130 nM and the GI50 (SK-MEL-2 melanoma) was 1940 nM. For the same compound, the TGI (SK-MEL-2 melanoma) was 4340 nM, the GI50 (SK-MEL-5 melanoma) was 1510 nM and the TGI (SK-MEL-5 melanoma) was 2960 nM. For the same compound, the GI50 (A549 NSCLC) was 4140 nM, the TGI (A549 NSCLC) was 17100 nM and the GI50 (HL-60(TB) leukemia) was 1930 nM. For the same compound, the TGI (HL-60(TB) leukemia) was 4070 nM, the GI50 (OVCAR-4 ovarian) was 2160 nM and the TGI (OVCAR-4 ovarian) was 5730 nM. The GI50 (M14 melanoma) was 2020 nM, the TGI (M14 melanoma) was 4480 nM and the GI50 (K-562 leukemia) was 2200 nM. It also gave a TGI (K-562 leukemia) of 4370 nM, a GI50 (HOP-62 NSCLC) of 1880 nM and a TGI (HOP-62 NSCLC) of 3470 nM. The GI50 (SF-539 CNS) was 1740 nM, the TGI (SF-539 CNS) was 3210 nM and the GI50 (NCI/ADR-RES ovarian) was 2800 nM. For the same compound, the TGI (NCI/ADR-RES ovarian) was 6000 nM, the GI50 (SF-295 CNS) was 1240 nM and the TGI (SF-295 CNS) was 2830 nM. The GI50 (BT-549 breast) was 2020 nM, the TGI (BT-549 breast) was 4950 nM and the GI50 (SW-620 colon) was 1870 nM. It also gave a TGI (SW-620 colon) of 3740 nM, a GI50 (MCF7 breast) of 1980 nM and a TGI (MCF7 breast) of 4240 nM. For the same compound, the GI50 (MDA-MB-435) was 1680 nM, the TGI (MDA-MB-435) was 3850 nM and the GI50 (IGROV1 ovarian) was 1850 nM. It also gave a TGI (IGROV1 ovarian) of 3770 nM, a GI50 (MDA-MB-231 breast) of 2010 nM and a TGI (MDA-MB-231 breast) of 4450 nM. For the same compound, the GI50 (EKVX NSCLC) was 2050 nM, the TGI (EKVX NSCLC) was 5140 nM and the GI50 (T-47D breast) was 2030 nM. The TGI (T-47D breast) was 4380 nM, the GI50 (HOP-92 NSCLC) was 1170 nM and the TGI (HOP-92 NSCLC) was 2640 nM. For the same compound, the GI50 (HCT-15 colon) was 1520 nM, the TGI (HCT-15 colon) was 3160 nM and the GI50 (CCRF-CEM leukemia) was 1770 nM. The TGI (CCRF-CEM leukemia) was 3990 nM, the GI50 (RXF 393 renal) was 1820 nM and the TGI (RXF 393 renal) was 3770 nM. The GI50 (SNB-19 CNS) was 6210 nM, the TGI (SNB-19 CNS) was 19200 nM and the GI50 (CAKI-1 renal) was 1350 nM. It also gave a TGI (CAKI-1 renal) of 2870 nM, a GI50 (UACC-257 melanoma) of 2190 nM and a TGI (UACC-257 melanoma) of 4700 nM. It also gave a GI50 (OVCAR-8 ovarian) of 2060 nM, a TGI (OVCAR-8 ovarian) of 3900 nM and a GI50 (NCI-H226 lung) of 2130 nM. For the same compound, the TGI (NCI-H226 lung) was 5780 nM, the GI50 (TK-10 renal) was 1600 nM and the TGI (TK-10 renal) was 3230 nM. The GI50 (SN12C renal) was 2230 nM, the TGI (SN12C renal) was 10300 nM and the GI50 (LOX IMVI melanoma) was 1570 nM. For the same compound, the TGI (LOX IMVI melanoma) was 3080 nM, the GI50 (SK-OV-3 ovarian) was 4140 nM and the TGI (SK-OV-3 ovarian) was 16100 nM. For the same compound, the GI50 (KM12 colon) was 2070 nM, the TGI (KM12 colon) was 3800 nM and the GI50 (PC-3 prostate) was 1450 nM. It also gave a TGI (PC-3 prostate) of 3020 nM, a GI50 (UACC-62 melanoma) of 1720 nM and a TGI (UACC-62 melanoma) of 3710 nM. It also gave a GI50 (HS 578T breast) of 2170 nM, a TGI (HS 578T breast) of 5130 nM and a GI50 (NCI-H522 lung) of 2110 nM. For the same compound, the TGI (NCI-H522 lung) was 4300 nM, the GI50 (HCT-116 colon) was 1860 nM and the TGI (HCT-116 colon) was 3430 nM. It also gave a GI50 (NCI-H23 lung) of 1710 nM, a TGI (NCI-H23 lung) of 3430 nM and a GI50 (ACHN renal) of 1690 nM. For the same compound, the TGI (ACHN renal) was 3140 nM, the GI50 (SK-MEL-28 melanoma) was 1890 nM and the TGI (SK-MEL-28 melanoma) was 3580 nM. The GI50 (HT29 colon) was 1900 nM, the TGI (HT29 colon) was 3830 nM and the GI50 (SF-268 CNS) was 2020 nM. The TGI (SF-268 CNS) was 3950 nM, the GI50 (786-0 renal) was 2110 nM and the TGI (786-0 renal) was 3710 nM. The GI50 (OVCAR-5 ovarian) was 1760 nM, the TGI (OVCAR-5 ovarian) was 3320 nM and the GI50 (NCI-H460 lung) was 2050 nM. The TGI (NCI-H460 lung) was 3990 nM, the GI50 (SNB-75 CNS) was 1430 nM and the TGI (SNB-75 CNS) was 5360 nM.

Reference: PubChem BioAssay (NCI)
